Where two headings read alike, the source gives them in different places.
Assays:
[1] = test system: antigen-induced arthritis (AIA) in C57BL/6 mice; assay: Antigen-induced arthritis (AIA); assay type: in vivo
[2] = Pharmacokinetics after oral administration; assay type: in vivo, Wistar rats; details: for AUC(0-inf) / k el / Cmax / MRT / Tmax / half-life: Wistar, rat, plasma; for AUC(0-inf): po; for k el: read-out: Ke (converted)
Experimental: (§1) For administration to Wistar rats, LAP was dissolved in DMSO:Tween 80:glucose 5% in a proportion of 15:5:80 (v/v/v), resulting in a solution of 1 mg/ml (for intravenous (i.v.) administration) and another of 5 mg/ml (for oral administration). LAP was administered to rats as an i.v. bolus dose at 2 mg/kg (n = 7) and at two oral doses of 10 (n = 8) and 25 mg/kg (n = 6). LAP salt was administered as i.v. (2 mg/kg, n = 6) and oral doses (30 mg/kg equivalent to 27.5 mg/kg of LAP, n = 8). The i.v. doses were injected into the lateral tail vein, and oral doses were given by gavage. The doses were chosen based on previous toxicological and pharmacodynamic studies. At predetermined time points (30 min before dosing and at 0.08, 0.25, 0.5, 1, 2, 4, 6, 8, 12, and 24 h) after LAP i.v. administration, blood samples (200–250 μl) were withdrawn into heparinized tubes via puncture of the lateral tail vein, opposite to the vein used for drug dosing. The same procedure was carried out after oral administration of LAP, with blood sampling at 0.25, 0.5, 1, 1.5, 2, 3, 6, 12, 24, and 30 h. After LAP sodium salt i.v. and oral dosing, blood samples were harvested up to 10 and 12 h, respectively. Plasma was obtained by centrifugation of blood samples (6800 × g, at 4 °C for 10 min) and stored at –80 °C until analysis by UPLC-MS/MS.
(§2) LAP and LAP sodium salt pharmacokinetic parameters after i.v. and oral administration were determined from individual plasma profiles by a noncompartmental approach (NCA). The peak plasma concentration (Cmax) and the time of maximum concentration (Tmax) were obtained by visual inspection of the data from the plasma concentration–time curve after oral dosing. Pharmacokinetic parameters such an elimination rate constant (λ), area under the curve (AUC0–∞), clearance (CLtot), half-life (t1/2), volume of distribution (Vdss), mean residence time (MRT), and bioavailability (Fabs) were determined using classical equations. The compartmental analyses were performed using SCIENTIST v.2.0.1 software (MicroMath®, USA). One- and two-compartment models with or without weighting schemes were evaluated. The best model to fit the data was chosen based on the random distribution of residuals, the correlation coefficient, and the model selection criterion (MSC) given by the software.
(§3) The individual plasma profiles of LAP and LAP sodium salt after i.v. administration were best described by a two-compartmental open model. Plasma profiles after oral administration with two different doses of LAP and one dose of LAP sodium salt were best described by the one-compartmental model.
(§4) LAP concentration in plasma samples was determined by a validated (FDA, US Food and Drug Administration, 2001) UPLC-MS/MS method. Analyses were run on an Acquity UPLC BEH (Waters Acquity™) C18 column (2.1 × 50 mm, 1.7 μm particle size), with a flow of 300 μl/min at 35 °C. A gradient constituted of water (A) and acetonitrile (B) acidified with 0.1% acetic acid was used as follows: 0 min (90% A), 1 min (75% A), 7 min (50% A), 8.5 min (0% A) and 9.5 min (100% A). For the triple quadrupole, MS parameters were set as follows: capillary voltage (2.20 kV); extractor (3.0 V) source temperature (150 °C), desolvation temperature (300 °C), cone gas flow (50 l/h), and desolvation gas flow (700 l/h). For quantification, a multiple reaction monitoring method (MRM) was applied. For LAP, the transition of m/z 243 > 187 using cone energy of 24 V and collision energy of 19 V was determined as most appropriate for quantification (Calibration curves between 1 and 20,000 ng/ml of LAP, R > 0.99, low quantification limit of 1 ng/ml, and detection limit of 0.1 ng/ml).
(§5) A total of 200 μl cold acetonitrile containing internal standard (2-methyl-amino-lapachol) at 5 μg/ml and 0.05% trifluoroacetic acid was added to 100 μl of plasma and vortexed for 20 s. Precipitated protein was removed by centrifugation (6800 × g at 4 °C for 10 min). […]

[3] = Pharmacokinetics after i.v. administration; assay type: in vivo, Wistar rats; details: for Vd: read-out: Vdss
Experimental: as §1, §2, §3, §4, §5

[4] = 10 mg/kg orally, recall with mBSA 100 μg/ml for 96 h
[5] = Wistar, rat, plasma, iv, 2 mg/kg, 2 mg/kg i.v., 2-Comp
[6] = Wistar, rat, plasma, iv, 2 mg/kg, 2 mg/kg i.v., NCA

In the case of CC(C)=CCC1=C(O)C(=O)c2ccccc2C1=O [LAP, 2-hydroxy-3-(3methyl-2-butenyl)-1,4-naphthoquinone], the “leucocyte infiltration into the knee joint” value ([1]; 10 mg/kg orally once a day over 9 days, 6 h after mBSA challenge) is reported as “remarkable reduction in leucocyte infiltration”, the “serum levels of anti-mBSA total IgG” value ([1]; 10 mg/kg orally once a day over 9 days, day 21) is reported as “did not find differences” and the “mBSA-specific production of IFN-γ by draining lymph node cells and splenocytes” value [1, 4] is reported as “significantly reduced”. The “mBSA-specific production of IL-17 by draining lymph node cells and splenocytes” value [1, 4] was “significantly reduced”, the Ka ([2]; 10 mg/kg oral LAP, 1-Comp) was 2.61 ± 0.85 h⁻¹ and the t1/2ß ([2]; 10 mg/kg oral LAP, 1-Comp) was 4.2 ± 0.3 h. It also gave a Fabs ([2]; 10 mg/kg oral LAP, NCA) of 77%, a l ([2]; 10 mg/kg oral LAP, NCA) of 0.16 ± 0.01 h⁻¹ and a Ka ([2]; 25 mg/kg oral LAP, 1-Comp) of 2.93 ± 0.79 h⁻¹. The Vdss ([2]; 25 mg/kg oral LAP, 1-Comp) was 0.24 ± 0.04 L/kg, the t1/2ß ([2]; 25 mg/kg oral LAP, 1-Comp) was 4.4 ± 0.6 h and the Fabs ([2]; 25 mg/kg oral LAP, NCA) was 65%. It also gave a l ([2]; 25 mg/kg oral LAP, NCA) of 0.19 ± 0.03 h⁻¹, an AUC(0-inf) ([2]; 10 mg/kg, 10 mg/kg oral LAP, 1-Comp) of 237 ± 20.2 µg·h/mL and an AUC(0-inf) ([2]; 10 mg/kg, 10 mg/kg oral LAP, NCA) of 217 ± 22 µg·h/mL. It also gave an AUC(0-inf) ([2]; 25 mg/kg, 25 mg/kg oral LAP, 1-Comp) of 434 ± 79.7 µg·h/mL, an AUC(0-inf) ([2]; 25 mg/kg, 25 mg/kg oral LAP, NCA) of 449 ± 78.1 µg·h/mL and a k el ([2]; 10 mg/kg oral LAP, 1-Comp) of 4.72e-05 s⁻¹. The Cmax ([2]; 10 mg/kg oral LAP, NCA) was 31600 ± 3800 ng/mL, the MRT ([2]; 10 mg/kg oral LAP, NCA) was 7.2 ± 0.6 h and the Tmax ([2]; 10 mg/kg oral LAP, NCA) was 1.2 ± 0.3 h. For the same compound, the half-life ([2]; 10 mg/kg oral LAP, NCA) was 3.2 ± 0.2 h, the k el ([2]; 25 mg/kg oral LAP, 1-Comp) was 4.44e-05 s⁻¹ and the Cmax ([2]; 25 mg/kg oral LAP, NCA) was 65600 ± 10600 ng/mL. The MRT ([2]; 25 mg/kg oral LAP, NCA) was 7.2 ± 0.7 h, the Tmax ([2]; 25 mg/kg oral LAP, NCA) was 1.3 ± 0.4 h and the half-life ([2]; 25 mg/kg oral LAP, NCA) was 3.6 ± 0.5 h. The CLtot ([3]; 2 mg/kg i.v., 2-Comp) was 0.667 ± 0.167 mL/min/kg, the Vc ([3]; 2 mg/kg i.v., 2-Comp) was 0.11 ± 0.03 L/kg and the a ([3]; 2 mg/kg i.v., 2-Comp) was 10.0 ± 4.1 µg/mL. It also gave a b ([3]; 2 mg/kg i.v., 2-Comp) of 8.8 ± 3.1 µg/mL, a t1/2ß ([3]; 2 mg/kg i.v., 2-Comp) of 3.7 ± 0.5 h and a t1/2α ([3]; 2 mg/kg i.v., 2-Comp) of 0.6 ± 0.4 h. For the same compound, the ß ([3]; 2 mg/kg i.v., 2-Comp) was 0.19 ± 0.03 h⁻¹, the α ([3]; 2 mg/kg i.v., 2-Comp) was 1.76 ± 1.52 h⁻¹ and the CLtot ([3]; 2 mg/kg i.v., NCA) was 0.667 ± 0.167 mL/min/kg. It also gave a λ ([3]; 2 mg/kg i.v., NCA) of 0.18 ± 0.04 h⁻¹, an AUC(0-inf) [3, 5] of 56.4 ± 21.6 µg·h/mL and a Vd [3, 5] of 0.17 ± 0.03 L/kg. It also gave an AUC(0-inf) [3, 6] of 56.1 ± 20.1 µg·h/mL, an MRT [3, 6] of 5.3 ± 1.2 h and a Vd [3, 6] of 0.19 ± 0.03 L/kg. The half-life ([3]; Wistar, rat, plasma, iv, 2 mg/kg, 2 mg/kg i.v., NCA, read-out: t1/2 (converted)) was 4.1 ± 1.1 h, the linearity of pharmacokinetics ([3]; dose range investigated 2–25 mg/kg (i.v. and oral)) was “Linear pharmacokinetics” and the total clearance ([3]; intravenous administration, rats) was 0.67 ± 0.17 mL/min/kg.
